Source: patent publication US9504746B2, “Pharmaceutical compositions of 4-(3-chloro-4-(cyclopropylaminocarbonyl)aminophenoxy)-7-methoxy-6-quinolinecarboxamide” (Eisai R&D Management Co., Ltd., priority 2004, dated 2016)

Assay: pH of 5% (w/w) aqueous solution or suspension of additive
Format: physicochemical
Details: 5% (w/w) aqueous solution or suspension of the additive itself

SMILES	pH value of 5% (w/w) aqueous solution or suspension
O=P([O-])([O-])O.[K+].[K+] [Example K2HPO4, Dipotassium hydrogenphosphate]	9.11
O=C([O-])CC(O)(CC(=O)[O-])C(=O)[O-].[Na+].[Na+].[Na+] [Sodium citrate]	8.22
[O]=[Mg] [MgO, Magnesium oxide]	10.63
CC(=O)[O-].[Na+] [Sodium acetate]	8.46
O=C1O[C@H](CO)[C@@H](O)[C@H](O)[C@H]1O [δ-Gluconolactone]	2.40
O=C([O-])[O-].[Na+].[Na+] [Na2CO3, Sodium carbonate]	11.45
O=C([O-])O.[Na+] [NaHCO3, Sodium hydrogencarbonate]	8.15
[Na+].[OH-] [NaOH, Sodium hydroxide]	13.56
O=P([O-])([O-])O.[Na+].[Na+] [Na2HPO4, Disodium hydrogenphosphate]	9.26
NCC(=O)O [Glycine]	6.17
